Counter-ions that a name gives are not always drawn. Like-named read-outs stand apart in the source and are kept apart here. Where a SMILES comes first, the peptide text is derived from it. The star is where a group is joined. Cbz = O=C(OCc1ccccc1)*; CH2F = FC*
Assays:
[1] = molecular target: T1, SARS-CoV-2 PLpro (nsp3 1564–1878) (Severe acute respiratory syndrome coronavirus 2, UniProt P0DTD1); experiment: biochemical; parameters: FRET-quenched peptide (Pro3) cleavage by PLpro, 10 min pre-incubation, slope over 20 min, normalised to no-compound control; conditions: read-out: % of control remaining
[2] = molecular target: T1, SARS-CoV-2 PLpro (nsp3 1564–1878); experiment: biochemical; parameters: FRET-quenched peptide (Pro3) cleavage by PLpro, 10 min pre-incubation, slope over 20 min, normalised to no-compound control; conditions: read-out: % of control remaining; remark: listed apart in the source

## NC1CCN(c2c(F)cc3c(=O)c(C(=O)O)cn(C4CC4)c3c2Cl)C1 (stereo not shown) [Clinafloxacin]
[1]; Well no.=2271, high concentration screen
  remaining activity at 3.75 µM: 96.8%
[2]; Well no.=2271, low concentration screen
  remaining activity at 1.25 µM: 93.2%

## CCCCCCCCCCCCCC(=O)O [Myristic acid]
[1]; Well no.=6979, high concentration screen
  remaining activity at 3.75 µM: 102%
[2]; Well no.=6979, low concentration screen
  remaining activity at 1.25 µM: 101%

## CCN(CC)C(=O)c1ccc(C2=CC3(CCNCC3)Oc3cccc(O)c32)cc1 [ADL5859 HCl]
[1]; Well no.=5051, high concentration screen
  remaining activity at 3.75 µM: 98.3%
[2]; Well no.=5051, low concentration screen
  remaining activity at 1.25 µM: 101%

## OCCOCCN1CCN(C(c2ccccc2)c2ccc(Cl)cc2)CC1 (stereo not shown) [Hydroxyzine (dihydrochloride)]
[1]; Well no.=6901, high concentration screen
  remaining activity at 3.75 µM: 98%
[2]; Well no.=6901, low concentration screen
  remaining activity at 1.25 µM: 100%

## C[C@@H]1Cc2c(Cl)cc(C(=O)N[C@@H](Cc3ccccc3)C(=O)O)c(O)c2C(=O)O1 [Ochratoxin A]
[1]
  remaining activity at 3.75 µM: 92.8%
[2]
  remaining activity at 1.25 µM: 92.5%

## c1ccc2c(CC3=NCCN3)cccc2c1 [Naphazoline (hydrochloride)]
[1]; Well no.=7529, high concentration screen
  remaining activity at 3.75 µM: 97.5%
[2]; Well no.=7529, low concentration screen
  remaining activity at 1.25 µM: 96.6%

## CN1C[C@@H]2c3ccccc3Oc3ccc(Cl)cc3[C@H]2C1 (racemic) [Asenapine (hydrochloride)]
[1]; Well no.=7661, high concentration screen
  remaining activity at 3.75 µM: 97%
[2]; Well no.=7661, low concentration screen
  remaining activity at 1.25 µM: 101%

## CC[C@H](C)[C@H](NC(=O)OCc1ccccc1)C(=O)N[C@@H](CCC(=O)OC)C(=O)N[C@H](C(=O)N[C@@H](CC(=O)OC)C(=O)CF)[C@@H](C)O [Z-IETD-FMK] (Cbz-IE(OMe)TD(OMe)-CH2F)
[1]; Well no.=8262, high concentration screen
  remaining activity at 3.75 µM: 96.2%
[2]; Well no.=8262, low concentration screen
  remaining activity at 1.25 µM: 98.1%

## O=C(NC(NC(=S)Nc1ccc(F)c([N+](=O)[O-])c1)C(Cl)(Cl)Cl)C(c1ccccc1)c1ccccc1 (racemic)
[1]; Well no.=2588, high concentration screen
  remaining activity at 3.75 µM: 93.4%
[2]; Well no.=2588, low concentration screen
  remaining activity at 1.25 µM: 94.8%

## CC(C)C[C@H](NC(=O)[C@H](CC(C)C)NC(=O)[C@H](Cc1ccccc1)NC(=O)[C@@H](N)CO)C(=O)N[C@@H](CCCN=C(N)N)C(=O)N[C@@H](CC(N)=O)C(=O)O [TRAP-6]
[1]; Well no.=6278, high concentration screen
  remaining activity at 3.75 µM: 103%
[1]; Well no.=8364, high concentration screen
  remaining activity at 3.75 µM: 97.2%
[2]; Well no.=6278, low concentration screen
  remaining activity at 1.25 µM: 101%
[2]; Well no.=8364, low concentration screen
  remaining activity at 1.25 µM: 98.5%

## Cc1cc(/C(O)=C2\C(=O)C(=O)N(CCCN3CCOCC3)C2c2ccncc2)ccc1OCc1ccccc1 (stereo not shown) [SBC-115076]
[1]; Well no.=7844, high concentration screen
  remaining activity at 3.75 µM: 95.8%
[2]; Well no.=7844, low concentration screen
  remaining activity at 1.25 µM: 101%

## C[C@@H](N)[C@H]1CC[C@H](C(=O)Nc2ccncc2)CC1 [ROCK Inhibitor, Y-27632]
[1]; Well no.=2452, high concentration screen
  remaining activity at 3.75 µM: 98.5%
[2]; Well no.=2452, low concentration screen
  remaining activity at 1.25 µM: 99.4%

## O=C(CO)N1CCC(c2n[nH]c(-c3ccc(Cl)cc3)c2-c2ccncn2)CC1 [SD-06]
[1]; Well no.=2897, high concentration screen
  remaining activity at 3.75 µM: 97%
[2]; Well no.=2897, low concentration screen
  remaining activity at 1.25 µM: 99.5%

## CC(C)(C(=O)O)c1ccc(C(O)CCCN2CCC(C(O)(c3ccccc3)c3ccccc3)CC2)cc1 (stereo not shown) [Fexofenadine (hydrochloride)]
[1]; Well no.=6619, high concentration screen
  remaining activity at 3.75 µM: 105%
[2]; Well no.=6619, low concentration screen
  remaining activity at 1.25 µM: 104%

## CCOC(=O)CCNc1cc(N2CCc3ccccc3CC2)nc(-c2ccccn2)n1 [GSK-J4]
[1]; Well no.=5779, high concentration screen
  remaining activity at 3.75 µM: 106%
[2]; Well no.=5779, low concentration screen
  remaining activity at 1.25 µM: 106%

## CCN(CC)CCCCN1c2ccccc2Oc2ccc(Cl)cc21 [10-[4'-(N,N-Diethylamino)butyl]-2-chlorophenoxazine hydrochloride]
[1]; Well no.=2574, high concentration screen
  remaining activity at 3.75 µM: 101%
[2]; Well no.=2574, low concentration screen
  remaining activity at 1.25 µM: 97.3%

## C=C(c1ccc(C(=O)O)cc1)c1cc2c(cc1C)C(C)(C)CCC2(C)C [Bexarotene]
[1]; Well no.=1814, high concentration screen
  remaining activity at 3.75 µM: 94.9%
[2]; Well no.=1814, low concentration screen
  remaining activity at 1.25 µM: 93.1%

## COc1cc2ncnc(Nc3ccc(F)c(Cl)c3)c2cc1OCCCN1CCOCC1 [Gefitinib]
[1]; Well no.=1579, high concentration screen
  remaining activity at 3.75 µM: 102%
[1]; Well no.=2743, high concentration screen
  remaining activity at 3.75 µM: 101%
[2]; Well no.=1579, low concentration screen
  remaining activity at 1.25 µM: 102%
[2]; Well no.=2743, low concentration screen
  remaining activity at 1.25 µM: 101%

## COc1cccc2c1C(=O)c1c(O)c3c(c(O)c1C2=O)C[C@@](O)(C(C)=O)C[C@@H]3O[C@H]1C[C@H](N)[C@H](O)[C@H](C)O1 [Daunorubicin]
[1]; Well no.=1708, high concentration screen
  remaining activity at 3.75 µM: 97.4%
[1]; Well no.=3221, high concentration screen
  remaining activity at 3.75 µM: 104%
[2]; Well no.=1708, low concentration screen
  remaining activity at 1.25 µM: 96.8%
[2]; Well no.=3221, low concentration screen
  remaining activity at 1.25 µM: 103%

## CC1(NC(=O)CBr)CCC(C(C)(C)NCC(O)COc2cccc3[nH]ccc23)CC1 (racemic)
[1]; Well no.=1215, high concentration screen
  remaining activity at 3.75 µM: 102%
[2]; Well no.=1215, low concentration screen
  remaining activity at 1.25 µM: 99.4%

## C[C@H](N)[C@H](O)c1cccc(O)c1 [Metaraminol (tartrate)]
[1]; Well no.=6417, high concentration screen
  remaining activity at 3.75 µM: 99.6%
[2]; Well no.=6417, low concentration screen
  remaining activity at 1.25 µM: 103%

## C[C@@H]1CC[C@H]2[C@](C)(CO)[C@@H](O)CC[C@]2(C)[C@@]12CC[C@@](CO)(CCO)O2 [Lagochiline]
[1]; Well no.=3651, high concentration screen
  remaining activity at 3.75 µM: 101%
[2]; Well no.=3651, low concentration screen
  remaining activity at 1.25 µM: 100%

## Cc1ccc(N(CC2=NCCN2)c2cccc(O)c2)cc1 [Phentolamine (mesylate)]
[1]; Well no.=7326, high concentration screen
  remaining activity at 3.75 µM: 90%
[2]; Well no.=7326, low concentration screen
  remaining activity at 1.25 µM: 93.7%

## CCOC(=O)[C@@H](N)CCC(=O)N[C@@H](CSCc1ccccc1)C(=O)N[C@@H](C(=O)OCC)c1ccccc1 [ethyl N5-((R)-3-(benzylthio)-1-(((R)-2-ethoxy-2-oxo-1-phenylethyl)amino)-1-oxopropan-2-yl)-L-glutaminate]
[1]; Well no.=5457, high concentration screen
  remaining activity at 3.75 µM: 108%
[2]; Well no.=5457, low concentration screen
  remaining activity at 1.25 µM: 105%

## Cc1ccc(NS(=O)(=O)c2ccc3c(c2)C2C=CCC2C(c2ccc(C(=O)O)cc2)N3)cc1C (stereo not shown) [MX69]
[1]; Well no.=6822, high concentration screen
  remaining activity at 3.75 µM: 94.1%
[1]; Well no.=7984, high concentration screen
  remaining activity at 3.75 µM: 98.5%
[2]; Well no.=6822, low concentration screen
  remaining activity at 1.25 µM: 97.6%
[2]; Well no.=7984, low concentration screen
  remaining activity at 1.25 µM: 100%

## CC(C)(C)c1cc(C=C(C#N)C#N)cc(C(C)(C)C)c1O [Tyrphostin A9]
[1]; Well no.=1426, high concentration screen
  remaining activity at 3.75 µM: 101%
[2]; Well no.=1426, low concentration screen
  remaining activity at 1.25 µM: 99.8%

## CC1CNCCN1S(=O)(=O)c1cccc2cnccc12 (stereo not shown) [H-7 dihydrochloride]
[1]; Well no.=570, high concentration screen
  remaining activity at 3.75 µM: 95.4%
[2]; Well no.=570, low concentration screen
  remaining activity at 1.25 µM: 95.5%

## C[C@]12C=CC(=O)N[C@@H]1CC[C@@H]1[C@@H]2CC[C@]2(C)[C@@H](C(=O)Nc3cc(C(F)(F)F)ccc3C(F)(F)F)CC[C@@H]12 [Dutasteride]
[1]; Well no.=5107, high concentration screen
  remaining activity at 3.75 µM: 107%
[2]; Well no.=5107, low concentration screen
  remaining activity at 1.25 µM: 106%

## CCCOc1cc2c(cc1\C(C)=C/C=C/C(C)=C/C(=O)O)C(C)(C)CCC2(C)C [(2E,4E,6Z)-3-methyl-7-(5,5,8,8-tetramethyl-3-propoxy-5,6,7,8-tetrahydro-2-naphthalenyl)-2,4,6-octatrienoic acid]
[1]; Well no.=6004, high concentration screen
  remaining activity at 3.75 µM: 93%
[2]; Well no.=6004, low concentration screen
  remaining activity at 1.25 µM: 92.7%

## CO/N=C(\C(=O)N[C@@H]1C(=O)N2C(C(=O)O)=C(CSC(=O)c3ccco3)CS[C@H]12)c1csc(N)n1 [Ceftiofur HCl]
[1]; Well no.=5288, high concentration screen
  remaining activity at 3.75 µM: 91.7%
[2]; Well no.=5288, low concentration screen
  remaining activity at 1.25 µM: 90.5%

## NC[C@H]1CC[C@H](C(=O)O)CC1 [Tranexamic acid]
[1]; Well no.=1816, high concentration screen
  remaining activity at 3.75 µM: 99.8%
[2]; Well no.=1816, low concentration screen
  remaining activity at 1.25 µM: 97.3%

— article PMC8286840, “Identifying SARS-CoV-2 antiviral compounds by screening for small molecule inhibitors of Nsp3 papain-like protease” (Biochemical Journal, 2021)
